Starred links: 1 amine or outer side, 2 acyl side, 3 side chain; linkers in the order of their positions; H or OH if unused. Positions of bridges follow the written chain, without caps; N, C: chain ends. Non-standard residues stand in square brackets, D forms with d. Residues, ends and D or L forms follow the SMILES beside them. *: point of attachment. NMehPhe = CN[C@@H](CCc1ccccc1)C(=O)O; dNMehPhe = CN[C@H](CCc1ccccc1)C(=O)O; NMeF = CN[C@@H](Cc1ccccc1)C(=O)O; NMeGABA = CN(CCCC(=O)[*:2])[*:1]; hPhe = N[C@@H](CCc1ccccc1)C(=O)O; NMeL = CN[C@@H](CC(C)C)C(=O)O; NMeV = CN[C@H](C(=O)O)C(C)C; NMeAbu = CC[C@H](NC)C(=O)O; NMeA = CN[C@@H](C)C(=O)O; Piperidide = C1CCN(*)CC1; Abu = CC[C@H](N)C(=O)O; Sar = CNCC(=O)O; tBu = CC(C)(C)*; Propyl = CCC*

One data set can be described thus: Caco-2 membrane permeability, improved method as used in the following Examples (96-well, 20 to 24 h preincubation). It counts as in vitro ADME. The conditions noted are these: human, Caco-2, Caco-2. Put shortly:
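Caco-2 monolayers were grown three weeks and preincubated 20–24 h at 37 °C with compound in DMEM+FaSSIF (1% DMSO) apically. The assay then used compound in FaSSIF/HBSS (1% DMSO, pH 6.0) apically and HBSS with 4% BSA (pH 7.4) basally. Basal samples were taken at 180 min for LC/MS, and Papp (cm/sec) was calculated.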
On to `CC(C)C[C@H]1C(=O)N[C@@H](CCc2ccccc2)C(=O)N(C)[C@@H](Cc2ccccc2)C(=O)N(C)[C@@H](CC(C)C)C(=O)N[C@H](C(=O)N2CCCCC2)CC(=O)N[C@H](C(C)C)C(=O)N(C)[C@@H](C)C(=O)N[C@@H](C(C)C)C(=O)N(C)[C@@H](CC(C)C)C(=O)N[C@@H]([C@@H](C)O)C(=O)N(C)CC(=O)N1C` [pd313] ([dV][NMeA]V[NMeL]T[Sar][NMeL][hPhe][NMeF][NMeL]D-Piperidide; lactam N-11), for which the Papp A→B at 180 min was 2.5 ×10⁻⁶ cm/s. For the compound `CC(C)C[C@H]1NC(=O)C[C@@H](C(=O)N2CCCCC2)NC(=O)[C@H](C)N(C)C(=O)[C@H](CC(C)C)N(C)C(=O)[C@H](COC(C)(C)C)NC(=O)[C@H](CC(C)C)N(C)C(=O)CN(C)C(=O)[C@H]([C@@H](C)O)NC(=O)[C@H](CC(C)C)N(C)C(=O)[C@H](CCc2ccccc2)NC(=O)[C@H](Cc2ccccc2)N(C)C1=O` [pd314] ([dL][NMeF][hPhe][NMeL]T[Sar][NMeL]S(tBu)[NMeL][NMeA]D-Piperidide; lactam N-11), the Papp A→B at 180 min came to 1.4 ×10⁻⁶ cm/s. On the same count and under the same terms, as for `CC(C)C[C@H]1C(=O)N[C@@H](COC(C)(C)C)C(=O)N(C)[C@@H](Cc2ccccc2)C(=O)N(C)[C@@H](CC(C)C)C(=O)N[C@H](C(=O)N2CCCCC2)CC(=O)N[C@H](C(C)C)C(=O)N(C)[C@@H](CC(C)C)C(=O)N[C@@H](CCc2ccccc2)C(=O)N(C)[C@@H](CC(C)C)C(=O)N[C@@H]([C@@H](C)O)C(=O)N(C)CC(=O)N1C` [pd315] ([dV][NMeL][hPhe][NMeL]T[Sar][NMeL]S(tBu)[NMeF][NMeL]D-Piperidide; lactam N-11), the figure is 1.7 ×10⁻⁶ cm/s; as for `CC[C@H](C)[C@@H]1NC(=O)[C@H](CC(C)C)N(C)C(=O)CCCN(C)C(=O)C[C@@H](C(=O)N2CCCCC2)NC(=O)[C@H](CC(C)C)N(C)C(=O)[C@H](C)N(C)C(=O)[C@H]([C@@H](C)O)NC(=O)[C@H](CC(C)C)N(C)C(=O)[C@H](CCc2ccccc2)NC(=O)[C@H](CC(C)C)N(C)C(=O)[C@H](Cc2ccccc2)N(C)C1=O` [pd316] ([NMeGABA][NMeL]I[NMeF][NMeL][hPhe][NMeL]T[NMeA][NMeL]D-Piperidide; lactam N-11), 1.4 ×10⁻⁶ cm/s.

Compound `CC(C)C[C@H]1C(=O)N[C@H](C(=O)N2CCCCC2)CC(=O)N(C)CCCC(=O)N(C)[C@@H](CC(C)C)C(=O)N[C@@H](CCc2ccccc2)C(=O)N(C)[C@@H](CC(C)C)C(=O)N(C)[C@@H](Cc2ccccc2)C(=O)N[C@@H](COC(C)(C)C)C(=O)N(C)[C@@H](CC(C)C)C(=O)N[C@@H]([C@@H](C)O)C(=O)N(C)CC(=O)N1C` [pd317] ([NMeGABA][NMeL][hPhe][NMeL][NMeF]S(tBu)[NMeL]T[Sar][NMeL]D-Piperidide; lactam N-11) had a Papp A→B at 180 min of 1.8 ×10⁻⁶ cm/s. On the same count and under the same terms, as for `CC(C)C[C@H]1C(=O)N[C@H](C(=O)N2CCCCC2)CC(=O)N(C)[C@@H](C)C(=O)N[C@@H](C(C)C)C(=O)N(C)[C@@H](CC(C)C)C(=O)N(C)[C@@H](Cc2ccccc2)C(=O)N[C@@H](C)C(=O)N(C)[C@@H](C)C(=O)N(C)[C@@H](CC(C)C)C(=O)N[C@@H](CCc2ccccc2)C(=O)N(C)CC(=O)N1C` [pd318] ([NMeA]V[NMeL][NMeF]A[NMeA][NMeL][hPhe][Sar][NMeL]D-Piperidide; lactam N-11), the figure is 2.5 ×10⁻⁶ cm/s; as for `CC[C@H]1C(=O)N[C@@H]([C@@H](C)O)C(=O)N(C)CC(=O)N(C)[C@@H](CC(C)C)C(=O)N[C@@H](CC(C)C)C(=O)N(C)[C@@H](Cc2ccccc2)C(=O)N(C)[C@@H](CC(C)C)C(=O)N[C@H](C(=O)N2CCCCC2)CC(=O)N[C@H](C(C)C)C(=O)N(C)[C@@H](CCc2ccccc2)C(=O)N[C@@H](CC(C)C)C(=O)N1C` [pd320] ([dV][NMehPhe]L[NMeAbu]T[Sar][NMeL]L[NMeF][NMeL]D-Piperidide; lactam N-11), 1.7 ×10⁻⁶ cm/s; as for `CC(C)C[C@@H]1NC(=O)[C@H](CC(C)C)N(C)C(=O)CN(C)C(=O)[C@H]([C@@H](C)O)NC(=O)[C@H](CC(C)C)N(C)C(=O)[C@H](C(C)C)NC(=O)[C@H](Cc2ccccc2)N(C)C(=O)[C@@H](C)NC(=O)C[C@@H](C(=O)N2CCCCC2)NC(=O)[C@H](CC(C)C)N(C)C(=O)[C@H](CCc2ccccc2)N(C)C1=O` [pd321] ([dA][NMeF]V[NMeL]T[Sar][NMeL]L[NMehPhe][NMeL]D-Piperidide; lactam N-11), 1.3 ×10⁻⁶ cm/s. `CC[C@@H]1NC(=O)[C@@H](CCc2ccccc2)N(C)C(=O)[C@H](CC(C)C)N(C)C(=O)[C@H](CC(C)C)NC(=O)[C@H](C)N(C)C(=O)C[C@@H](C(=O)N2CCCCC2)NC(=O)[C@H](CC(C)C)N(C)C(=O)CN(C)C(=O)[C@H]([C@@H](C)O)NC(=O)[C@H](CC(C)C)N(C)C(=O)[C@H](Cc2ccccc2)N(C)C1=O` [pd322] ([NMeA]L[NMeL][dNMehPhe][Abu][NMeF][NMeL]T[Sar][NMeL]D-Piperidide; lactam N-11) yielded a Papp A→B at 180 min of 3.1 ×10⁻⁶ cm/s. Still for that read-out and setting: as for `CC(C)C[C@@H]1NC(=O)[C@H](C)N(C)C(=O)C[C@@H](C(=O)N2CCCCC2)NC(=O)[C@H](CC(C)C)N(C)C(=O)CN(C)C(=O)[C@H]([C@@H](C)O)NC(=O)[C@H](CC(C)C)N(C)C(=O)[C@H](CCc2ccccc2)N(C)C(=O)[C@H](CC(C)C)NC(=O)[C@H](Cc2ccccc2)N(C)C(=O)[C@H](CC(C)C)N(C)C1=O` [pd323] ([NMeA]L[NMeL][NMeF]L[NMehPhe][NMeL]T[Sar][NMeL]D-Piperidide; lactam N-11), the figure is 2.3 ×10⁻⁶ cm/s; as for `CC[C@H](C)[C@@H]1NC(=O)[C@H](Cc2ccccc2)N(C)C(=O)CN(C)C(=O)C[C@@H](C(=O)N2CCCCC2)NC(=O)[C@H](CC(C)C)N(C)C(=O)[C@H](COC(C)(C)C)NC(=O)[C@H](CC(C)C)N(C)C(=O)[C@H](CCc2ccccc2)N(C)C(=O)CN(C)C(=O)[C@H]([C@@H](C)O)NC(=O)[C@H](CC(C)C)N(C)C1=O` [pd324] ([Sar][NMeF]I[NMeL]T[Sar][NMehPhe][NMeL]S(tBu)[NMeL]D-Piperidide; lactam N-11), 3.3 ×10⁻⁶ cm/s; as for `CCCOC[C@@H]1NC(=O)[C@H](CC(C)C)N(C)C(=O)CN(C)C(=O)[C@H]([C@@H](C)O)NC(=O)[C@H](CC(C)C)N(C)C(=O)[C@H](CC(C)C)NC(=O)[C@H](Cc2ccccc2)N(C)C(=O)[C@@H](C(C)C)NC(=O)C[C@@H](C(=O)N2CCCCC2)NC(=O)[C@H](CC(C)C)N(C)C(=O)[C@H](Cc2ccccc2)N(C)C1=O` [pd325] ([dV][NMeF]L[NMeL]T[Sar][NMeL]S(Propyl)[NMeF][NMeL]D-Piperidide; lactam N-11), 2.2 ×10⁻⁶ cm/s. On the same count and under the same terms, as for `CCCOC[C@@H]1NC(=O)[C@H](CC(C)C)N(C)C(=O)[C@H](C(C)C)NC(=O)[C@H](Cc2ccccc2)N(C)C(=O)[C@@H](C(C)C)NC(=O)C[C@@H](C(=O)N2CCCCC2)NC(=O)[C@H](C)N(C)C(=O)[C@H](Cc2ccccc2)N(C)C(=O)[C@H](COC(C)(C)C)NC(=O)[C@H](CC(C)C)N(C)C(=O)CN(C)C1=O` [pd326] ([dV][NMeF]V[NMeL]S(Propyl)[Sar][NMeL]S(tBu)[NMeF][NMeA]D-Piperidide; lactam N-11), the figure is 3.3 ×10⁻⁶ cm/s. As to `CCCOC[C@@H]1NC(=O)[C@H](Cc2ccccc2)N(C)C(=O)[C@@H](C(C)C)NC(=O)C[C@@H](C(=O)N2CCCCC2)NC(=O)[C@H](CC(C)C)N(C)C(=O)[C@H](Cc2ccccc2)N(C)C(=O)[C@H](COC(C)(C)C)NC(=O)[C@H](CC(C)C)N(C)C(=O)CN(C)C(=O)[C@H]([C@@H](C)O)NC(=O)[C@H](CC(C)C)N(C)C1=O` [pd327] ([dV][NMeF]S(Propyl)[NMeL]T[Sar][NMeL]S(tBu)[NMeF][NMeL]D-Piperidide; lactam N-11), the Papp A→B at 180 min worked out at 3.1 ×10⁻⁶ cm/s. Turning to `CCCOC[C@@H]1NC(=O)[C@H](Cc2ccccc2)N(C)C(=O)[C@H](Cc2ccccc2)N(C)C(=O)[C@H](C(C)C)NC(=O)[C@H](CC(C)C)N(C)C(=O)CCCN(C)C(=O)C[C@@H](C(=O)N2CCCCC2)NC(=O)[C@H](CC(C)C)N(C)C(=O)[C@H](CC(C)C)N(C)C(=O)[C@H]([C@@H](C)O)NC(=O)[C@H](CC(C)C)N(C)C1=O` [pd328] ([NMeGABA][NMeL]V[NMeF][NMeF]S(Propyl)[NMeL]T[NMeL][NMeL]D-Piperidide; lactam N-11), the Papp A→B at 180 min amounted to 2.3 ×10⁻⁶ cm/s.

In the case of `CCCOC[C@@H]1NC(=O)[C@H](Cc2ccccc2)N(C)C(=O)[C@H](CC(C)C)N(C)C(=O)[C@H](CC(C)C)NC(=O)[C@H](C)N(C)C(=O)C[C@@H](C(=O)N2CCCCC2)NC(=O)[C@H](CC(C)C)N(C)C(=O)CN(C)C(=O)[C@H]([C@@H](C)O)NC(=O)[C@H](CC(C)C)N(C)C(=O)[C@H](Cc2ccccc2)N(C)C1=O` [pd329] ([NMeA]L[NMeL][NMeF]S(Propyl)[NMeF][NMeL]T[Sar][NMeL]D-Piperidide; lactam N-11), the Papp A→B at 180 min turned out to be 4.2 ×10⁻⁶ cm/s. Same read-out and setting: as for `CCCOC[C@@H]1NC(=O)[C@H](CC(C)C)N(C)C(=O)[C@H](Cc2ccccc2)N(C)C(=O)CN(C)C(=O)[C@H]([C@@H](C)O)NC(=O)[C@H](CC(C)C)N(C)C(=O)[C@H]([C@@H](C)CC)NC(=O)[C@H](Cc2ccccc2)N(C)C(=O)CN(C)C(=O)C[C@@H](C(=O)N2CCCCC2)NC(=O)[C@H](CC(C)C)N(C)C1=O` [pd330] ([Sar][NMeF]I[NMeL]T[Sar][NMeF][NMeL]S(Propyl)[NMeL]D-Piperidide; lactam N-11), the figure is 1.8 ×10⁻⁶ cm/s.

Still in this data set, the particulars now being: human; Papp, Caco-2 membrane permeability, improved method; read-out: Caco-2.
For `CC(C)C[C@H]1C(=O)N[C@@H]([C@@H](C)O)C(=O)N(C)CC(=O)N(C)[C@@H](Cc2ccccc2)C(=O)N(C)[C@@H](CC(C)C)C(=O)N[C@@H](C(C)C)C(=O)N(C)[C@@H](CC(C)C)C(=O)N[C@H](C(=O)N2CCCCC2)CC(=O)N(C)CC(=O)N(C)[C@@H](C(C)C)C(=O)N[C@@H](CCc2ccccc2)C(=O)N1C` [pd319] ([Sar][NMeV][hPhe][NMeL]T[Sar][NMeF][NMeL]V[NMeL]D-Piperidide; lactam N-11), the Papp A→B at 180 min came out at 2.2 ×10⁻⁶ cm/s.

Source of the values: US20200131669A1, “CYCLIC PEPTIDE COMPOUND HAVING HIGH MEMBRANE PERMEABILITY, AND LIBRARY CONTAINING SAME” (Chugai Seiyaku Kabushiki Kaisha, priority 2017, published 2020).
